Holding throughout (assay type): cell-based
Test [1] deals with isolated guinea pig ileum. Kind of test: Antagonism of histamine-induced contraction of isolated guinea pig ileum. Particulars: Cavia porcellus; Table C; histamine final concentration 0.2 μg/ml; read-out: Inhibition IC50 (histamine-induced contraction of isolated guinea pig ileum). The method, then: The antagonism of the effects of histamine on the contraction of isolated guinea pig ileum by the compounds of formula I can be determined by the procedure of G. Possanza, A. Bauen, and P. Stewart, Int. Arch. Allergy Appl. Immunol., 49, 289 (1975). The degree of inhibition is determined as the difference between the contraction caused by histamine (final concentration 0.2 μg/ml) alone and that seen in the presence of both histamine and the test compound. The inhibitory activity of the test compound is expressed as that concentration of the compound which causes a 50% reduction of the contractile response (IC50).

The test system of test [2] is rat peritoneal mast cells. Kind of test: Inhibition of rat peritoneal mast cell histamine release. Particulars: Mast cell, 1 h; Table B; in vitro, sheep anti-rat IgE or ovalbumin, 60 minutes at 37° C.; Int. = interference with test procedure; read-out: Inhibition IC50 (histamine release from rat peritoneal mast cells). The method, then:
Harvest of Peritoneal Mast Cells: After the rats are sacrificed with ether, 20 ml of Minimum Essential Medium (MEM) containing 20 units/ml heparin is injected into the peritoneum. The abdomen is massaged for one minute and the lavage fluid collected. The peritoneal cells are centrifuged at 1800 rpm for 8 minutes in cold. After two washes with Tris A buffer, the cells are resuspended in Tris ACM buffer at 2-33 10^6 cells/ml. 2. Reaction Mixture: The reaction is carried out in 12×75 mm plastic tubes at a total volume of 1.25 ml. The reaction mixture includes 0.5 ml (10-1000 μg) sheep anti-rat IgE or ovalbumin, 0.2 ml of the test compound in water at concentrations ranging from 10-1000 μM, 0.5 ml phosphatidylserine solution (20-60 μg to each tube), and 0.5 ml of cell suspension. The reaction mixture is incubated in a 37° C. shaking water bath for 60 minutes. Upon completion of the reaction, the tubes are centrifuged and the supernatants collected. The protein is removed from the supernatants by precipitation with 0.2 ml of 8% perchloric acid. 3. Histamine Assay: Histamine release is measured by the automated fluorometric method of Siraganian, supra. The concentration which causes a 50% inhibition (IC50) of histamine release is computed as in Part A.

Test [3] has as its system human leukocytes (basophils). Kind of test: Inhibition of human leukocyte (basophil) histamine release in vitro (rabbit anti-human IgE). Particulars: Table A, 60 minutes at 37° C., Int. = interference with test procedure; for IC50: Leukocyte, 1 h, read-out: Inhibition IC50 (histamine release from human leukocytes (basophils)). The method, then: Separation of Leukocytes: A modification of the method of L. Lichtenstein and A. Osler, J.Exp.Med. 120, 507 (1964) was used. Heparinized human blood (80-100 ml) is mixed with 20 ml of saline (0.2%) containing 0.6 gm of dextrose and 1.2 gm dextran in propylene centrifuge tubes. The mixture is kept at ambient temperature for 60-90 minutes to allow the separation of erythrocytes from the platelet-leukocyte-rich supernate. The supernate is removed and centrifuged for 8 minutes at 110×g in cold. The leukocyte pellet is washed 2× with Tris buffer and finally suspended in 150-180 ml Tris-ACM buffer at 1-2×10^6 cells/ml. 2. Reaction Mixture: The reaction is carried out in 12×75 mm plastic tubes at a total volume of 1.25 ml. The reaction medium includes 0.05 ml rabbit anti-human IgE (the antigen), 0.2 ml of the test compound in water at concentrations ranging from 10-1000 μM, and 1.0 ml of the leukocyte suspension. The reaction mixture is incubated in a 37° C. shaking water bath for 60 minutes. Upon completion of the reaction, the tubes are centrifuged and the supernatants collected. The protein is removed from the supernatants by precipitation with 0.2 ml of 8% perchloric acid. 3. Histamine Assay: Histamine release is measured by the automated fluorometric method of W. Siraganian and W. Hook in Chapter 102 of the Manual of Clinical Immunology, 2nd Edition, Edited by R. Rose and H. Friedman, Published by the American Society for Microbiology, Washington, D.C. 1980. Percent inhibition is calculated as follows: [formula] The concentration which causes a 50 percent inhibition (IC50) of histamine release is interpolated from a plot of percent inhibition versus logarithm of drug concentration.

This note sets out measurements from US4579947A, “Substituted phenylalkylpiperazinylpropyl (ureas or thioureas) useful for treatment of immunological, inflammatory and allergic disorder” (Boehringer Ingelheim Pharmaceuticals, Inc., priority 1984, dated 1986).

The term IC50 denotes the concentration at which inhibition is half-maximal.

SMILES strings stand for the structures. Where a name gives a salt, the structure may show the parent alone.

Take `O=C(NCCCN1CCN(Cc2ccc(Cl)cc2)CC1)NC1CCCCC1` [Example 1, 1-{3-[4-(4-Chlorobenzyl)piperazin-1-yl]propyl}-3-cyclohexylurea dihydrochloride]: the IC50 in test [1] stood at 0.015 µM; in test [2] it was 108 µM; in test [3] it was 50 µM.

`CNC(=O)NCCCN1CCN(Cc2ccc(Cl)cc2)CC1` [Example 2, 1-{3-[4-(4-Chlorobenzyl)piperazin-1-yl]propyl}-3-methylurea dihydrochloride]: the IC50 in test [1] amounted to 0.63 µM; in test [3], 300 µM.

Turning to `CCCCNC(=O)NCCCN1CCN(Cc2ccc(Cl)cc2)CC1` [Example 3, 1-{3-[4-(4-Chlorobenzyl)piperazin-1-yl]propyl}-3-n-butylurea dihydrochloride hemihydrate], the IC50 in test [1] is 0.07 µM; in test [3], 50 µM.

As for `CCCCCCNC(=O)NCCCN1CCN(Cc2ccc(Cl)cc2)CC1` [Example 4, 1-{3-[4-(4-Chlorobenzyl)piperazin-1-yl]propyl}-3-n-hexylurea dihydrochloride], the IC50 in test [1] turned out to be 0.05 µM; in test [2] it was 110 µM; in test [3], 8 µM.

Turning to `CCCCCCCCNC(=O)NCCCN1CCN(Cc2ccc(Cl)cc2)CC1` [Example 5, 1{3-[4-(4-Chlorobenzyl)piperazin-1-yl]propyl}-3-n-octylurea diihydrochloride], the IC50 in test [1] came out at 0.75 µM; in test [2], 210 µM; in test [3] it was 16 µM.

Regarding `O=C(NCCCN1CCN(Cc2ccc(F)cc2)CC1)NC1CCCCC1` [Example 6, 1-{3-[4-(4-Fluorobenzyl)piperazin-1-yl]propyl}-3-cyclohexylurea dihydrochloride monohydrate], the IC50 in test [1] was 0.11 µM; in test [3], 50 µM.

As to `O=C(NCCCN1CCN(Cc2ccccc2)CC1)NC1CCCCC1` [Example 7, 1-{3-(4-Benzylpiperazin-1-yl)propyl]-3-cyclohexylurea dihydrochloride], the 50% inhibitory concentration (IC50) in test [1] worked out at 0.32 µM; in test [3], 240 µM.

Turning to `O=C(NCCCN1CCN(Cc2ccccc2)CC1)Nc1ccccc1` [Example 8, 1-[3-(4-Benzylpiperazin-1-yl)propyl]-3-phenylurea], the figures for the IC50 in test [1] and in test [3] were 0.21 µM and 400 µM, respectively.

For the compound `O=C(NCCCN1CCN(Cc2ccc(Cl)cc2)CC1)Nc1ccc(Cl)cc1` [Example 10, 1-{3-[4-(4-Chlorobenzyl)piperazin-1-yl]propyl}-3-(4-chlorophenyl)urea hydrochloride], the IC50 was 0.15 µM in test [1] and 30 µM in test [3].

`Cc1ccc(NC(=O)NCCCN2CCN(Cc3ccc(Cl)cc3)CC2)cc1` [Example 11, 1-{3-[4-(4-Chlorobenzyl)piperazin-1-yl]propyl}-3-(4-methylphenyl)urea dihydrochloride monohydrate]: the IC50 in test [1] was 0.065 µM; in test [3], 37 µM.

Consider `COc1ccc(NC(=O)NCCCN2CCN(Cc3ccc(Cl)cc3)CC2)cc1` [Example 12, 1-{3-[4-(4-Chlorobenzyl)piperazin-1-yl]-propyl}-3-(4-methoxyphenyl)urea hydrochloride], for which the IC50 in test [1] worked out at 0.015 µM; in test [3], 80 µM.

For the compound `O=C(NCCCN1CCN(Cc2ccc(Cl)cc2)CC1)Nc1ccc(F)cc1` [Example 15, 1-{3-[4-(4-Chlorobenzyl)piperazin-1-yl]propyl}-3-(4-fluorophenyl)urea dihydrochloride monohydrate], the IC50 in test [1] came out at 0.06 µM; in test [3], 20 µM.

As for `O=C(NCCCN1CCN(Cc2ccc(Cl)cc2)CC1)Nc1ccc([N+](=O)[O-])cc1` [Example 16, 1-{3-[4-(4-Chlorobenzyl)piperazin-1-yl]propyl}-3-(4-nitrophenyl)urea dihydrochloride], the IC50 was found to be 0.018 µM in test [1] and 30 µM in test [3].

For the compound `O=C(NCCCN1CCCN(Cc2ccc(Cl)cc2)CC1)NC1CCCCC1` [Example 17, 1-{3-[4-(4-Chlorobenzyl)homopiperazin-1-yl]propyl}-3-cyclohexylurea dihydrochloride], the IC50 in test [1] is 0.15 µM; in test [3] it was 13 µM.

`O=C(NCCCN1CCCN(Cc2ccc(Cl)cc2)CC1)Nc1ccccc1` [Example 18, 1-{3-[4-(4-Chlorobenzyl)homopiperazin-1-yl]propyl}-3-phenylurea dihydrochloride]: the IC50 turned out to be 0.55 µM in test [1] and 15 µM in test [3].

Consider `S=C(NCCCN1CCN(Cc2ccc(Cl)cc2)CC1)NC1CCCCC1` [Example 19, 1-{3-[4-(4-Chlorobenzyl)piperazin-1-yl]propyl}-3-cyclohexylthiourea], for which the values for the IC50 in test [1] and in test [3] were 0.11 µM and 26 µM, respectively.

As for `S=C(NCCCN1CCN(Cc2ccc(Cl)cc2)CC1)Nc1ccccc1` [Example 20, 1-{3-[4-(4-Chlorobenzyl)piperazin-1-yl]propyl}-3-phenylthiourea], the IC50 in test [1] was determined as 0.1 µM; in test [3], 37 µM.

Take `CCCCCCNC(=S)NCCCN1CCN(Cc2ccc(Cl)cc2)CC1` [Example 21, 1-{3-[4-(4-Chlorobenzyl)piperazin-1-yl]propyl}-3-n-hexylthiourea dihydrochloride hemihydrate]: the IC50 in test [1] came out at 0.08 µM. For the same compound, the “Inhibition IC50 (histamine release from human leukocytes (basophils))” value in test [3] is “Int”.

Regarding `O=C(NCCCN1CCN(Cc2ccc(Cl)cc2)CC1)NCc1ccccc1` [Example 22, 1-{3-[4-(4-Chlorobenzyl)piperazin-1-yl]propyl}-3-benzylurea dihydrochloride], the IC50 was 0.23 µM in test [1] and 112 µM in test [3].

Turning to `CCCCCCNC(=O)NCCCN1CCN(CCc2ccc(Cl)cc2)CC1` [Example 23, 1-{3-[4-(4-Chlorophenethyl)piperazin-1-yl]propyl}-3-n-hexylurea dihydrochloride], the IC50 in test [1] was 0.02 µM; in test [3], 16 µM.

Regarding `CCCCCCNC(=O)NCCCN1CCN(Cc2ccc(Cl)c(C(F)(F)F)c2)CC1.Cl.Cl` [Example 26, 1-{3-[4-(3-Trifluoromethyl-4-chlorobenzyl)piperazin-1-yl]propyl}-3-n-hexylurea dihydrochloride], the half-inhibitory concentration (IC50) in test [1] worked out at 0.09 µM. Besides, the “Inhibition IC50 (histamine release from human leukocytes (basophils))” value in test [3] is “Int”.

In the case of `N#Cc1ccc(NC(=O)NCCCN2CCN(CCCc3ccc(Cl)cc3)CC2)cc1` [Example 27, 1-{3-{4-[3-(4-Chlorophenyl)propyl]piperazin-1-yl}propyl}3-(4-cyanophenyl)urea dihydrocyloride monohydrate], the IC50 is 0.11 µM in test [1] and 20 µM in test [3].

For `C=CCNC(=O)NCCCN1CCN(Cc2ccc(Cl)cc2)CC1` [Example 28, 1-{3-[4-(4-Chlorobenzyl)piperazin-1-yl]propyl}-3-allylurea dihydrochloride], the figures for the IC50 in test [1] and in test [3] were 0.17 µM and 120 µM, respectively.

For `CC(=O)c1ccc(NC(=O)NCCCN2CCN(Cc3ccc(Cl)cc3)CC2)cc1` [Example 29, 1-{3-[4-(4-Chlorobenzyl)piperazin-1-yl]propyl}-3-(4-acetylphenyl)urea dihydrochloride dihydrate], the figures for the IC50 in test [1] and in test [3] were 0.02 µM and 115 µM, respectively.

As for `CCOc1ccc(NC(=O)NCCCN2CCN(Cc3ccc(Cl)cc3)CC2)cc1` [Example 30, 1-{3-[4-(4-Chlorobenzyl)piperazin-1-yl]propyl}-3-(4-ethoxyphenyl)urea dihydrochloride], in test [3], the IC50 came out at 35 µM.
